The target in assay [1] is T1, αvβ5 integrin (Homo sapiens, UniProt P06756+P18084).
T1 construct: purified from human placenta; from tissue; host or cells: human placenta
Put plainly: Solid-phase receptor binding assay, [125I]-Echistatin competition, αvβ5. The note with it: αvβ5 purified from human placenta; competition with [125I]-Echistatin. As for the experimental part:
Solid-phase receptor binding assay. [^125I]-Echistatin, labelled according to the lactoperoxidase method and with a specific activity of 2000 Ci/mmol, and αvβ3 and αvβ5 integrins, purified from human placenta, are used for the in vitro assays. Purified αvβ3 and αvβ5 receptors are respectively diluted to 500 ng/mL and 1000 ng/mL in 20 mM Tris (pH 7.4), 150 mM NaCl, 2 mM CaCl2, 1 mM MgCl2, 1 mM MnCl2. An amount of the diluted receptor solutions (100 μL/well) is added to a 96-well microtiter plate (Optiplate-96 HB, PerkinElmer Life Sciences, Boston, Mass.) and incubated at 4° C. for 16 h. Then, the plate is washed once with an incubation buffer [20 mM Tris (pH 7.4), 150 mM NaCl, 2 mM CaCl2, 1 mM MgCl2, 1 mM MnCl2, 1% BSA] and incubated for additional 2 h at room temperature. […] After an incubation period of 3 h at room temperature, the plate is washed three times with the incubation buffer, then the radioactivity is measured in a plate counter Top-Count NXT (Perkin Elmer Life Sciences, Boston, Mass.) using 200 μL/well of scintillating liquid MicroScint-40 (PerkinElmer Life Sciences, Boston, Mass.). […] IC50 values are determined by fitting the binding inhibition data with a non-linear regression, using the GraphPad Prism 4.0 software package (GraphPad Prism, San Diego, Calif.). […]

Assay [2] addresses T2, αvβ3 integrin (Homo sapiens, UniProt P05106+P06756).
T2 construct: purified from human placenta; from tissue; host or cells: human placenta
Put plainly: Solid-phase receptor binding assay, [125I]-Echistatin competition, αvβ3. As to conditions: for IC50: αvβ3 purified from human placenta, competition with [125I]-Echistatin. As to the method: Solid-phase receptor binding assay. [^125I]-Echistatin, labelled according to the lactoperoxidase method and with a specific activity of 2000 Ci/mmol, and αvβ3 and αvβ5 integrins, purified from human placenta, are used for the in vitro assays. Purified αvβ3 and αvβ5 receptors are respectively diluted to 500 ng/mL and 1000 ng/mL in 20 mM Tris (pH 7.4), 150 mM NaCl, 2 mM CaCl2, 1 mM MgCl2, 1 mM MnCl2. An amount of the diluted receptor solutions (100 μL/well) is added to a 96-well microtiter plate (Optiplate-96 HB, PerkinElmer Life Sciences, Boston, Mass.) and incubated at 4° C. for 16 h. Then, the plate is washed once with an incubation buffer [20 mM Tris (pH 7.4), 150 mM NaCl, 2 mM CaCl2, 1 mM MgCl2, 1 mM MnCl2, 1% BSA] and incubated for additional 2 h at room temperature. The plate is treated twice with the same buffer, and competitive binding experiments are carried out with a fixed concentration of [^125I]-Echistatin (0.05 nM and 0.1 nM for αvβ3 and αvβ5 respectively) and concentrations of the test compounds ranging from 0.01 nM to 100 μM. All the assays are carried out in triplicate at a final volume of 0.2 mL, each containing the following species: 0.05 mL of [^125I]-Echistatina, 0.04 mL of the test compounds, and 0.11 mL of the incubation buffer. Non-specific binding is defined as the [^125I]-Echistatin bound in the presence of excess (1 μM) of non-labelled echistatin. After an incubation period of 3 h at room temperature, the plate is washed three times with the incubation buffer, then the radioactivity is measured in a plate counter Top-Count NXT (Perkin Elmer Life Sciences, Boston, Mass.) using 200 μL/well of scintillating liquid MicroScint-40 (PerkinElmer Life Sciences, Boston, Mass.). Data analysis. IC50 values are determined by fitting the binding inhibition data with a non-linear regression, using the GraphPad Prism 4.0 software package (GraphPad Prism, San Diego, Calif.). […] The inhibition curves better fitted according to a two-sites model (p<0.05) rather than a single-site model are considered to be significant.

Assay [3] deals with A375M melanoma cell line. The assay is described as follows: Melanoma cell line assay, inhibition of cell adhesion to RGD-containing substrates. In kind it is cell-based, human. As to conditions: compounds at 10, 1.0 and 0.1 μM, FIG. 3. As to the method:
A series of experiments carried out using the flux cytometry technique and specific monoclonal antibodies, allowed for the setup of particular human melanoma cells characterized by an over-expression of integrin receptors. Such cells have been used to test the capability of selected compounds of formula (I) at 10, 1.0 and 0.1 μM concentrations, of inhibiting the binding between these cells and suitable substrates containing the RGD sequence, such as vitronectin, fibronectin, and osteopontin (FIG. 3).
Melanoma cell line assay. The selected cell line for this study is the A375M, which are in vivo selected melanoma cells starting from A375P cells isolated from a amelanotic human melanoma. The expression of the RGD-dependent integrinic pattern, comprising αvβ3, αvβ5, α5β1 integrins, of A375M cells is determined by the flux cytometry technique (FACScanto, Becton & Dickinson) and by RT-PCR. With aim to evaluate the ability of compounds of formula (I) of binding to integrins exposed to the melanoma cells surface, the inhibition of adhesion of such cells to vitronectin, fibronectin and osteopontin are measured. A spectrophotometric evaluation of the cellular content of the culture plates used in the adhesion tests allows for the precision and the correlation of the results obtained in different experiments.

This note sets out measurements from patent US8809338B2, “1,2,3-triazole-based peptidomimetic integrin inhibitors for the diagnosis and therapy of tumors” (Universita' Degli Studi di Firenze, priority 2010, dated 2014).

“Also recorded” adds a separate entry of the source.

As for `N=C(N)NCCCc1cn(CC(=O)N[C@@H](CC(=O)O)c2ccccc2)nn1` [Compound 38], the IC50 was 1.02 µM in assay [1] and 0.0164 µM in assay [2]. As for `N=C(N)NCCCc1cn(CC(=O)NC(CC(=O)O)c2ccc(F)cc2)nn1` (centres unmarked) [Compound 48], the IC50 in assay [1] worked out at 9.9 µM. Also, the IC50 in assay [2] came out at 0.215 µM. For the same molecule, in assay [3], the “inhibition of adhesion of melanoma cells to fibronectin” value is “minor effect”, the “inhibition of binding of melanoma cells to osteopontin” value is given as “significantly inhibits; also recorded: minor effect” and the “inhibition of binding of melanoma cells to vitronectin” value is reported as “significantly inhibits”.

With `N=C(N)NCCCc1cn(CC(=O)NC(CC(=O)O)c2ccc(F)cc2)nn1` (centres unmarked) [Compound 49], in assay [2], the 50% inhibitory concentration (IC50) amounted to 0.101 µM.

As to `Cc1ccc(S(=O)(=O)N(CCn2cc(CCNC(=N)N)nn2)CC(=O)O)cc1` [Compound 52], the inhibition at 1 µM in assay [2] (1 μM concentration) worked out at 54%. Besides, the inhibition at 10 µM in assay [2] (10 μM concentration) was determined as 77%. Regarding `N=C(N)NCCCc1cn(CC(=O)N[C@@H](CC(=O)O)c2ccc(O)cc2)nn1` [Compound 54], the half-inhibitory concentration (IC50) in assay [2] stood at 2.1 µM.

Take `N=C(N)NCCCc1cn(CC(=O)NCCC(=O)O)nn1` [Compound 55]: in assay [2], the IC50 amounted to 0.013 µM. `O=C(O)C[C@H](NC(=O)Cn1cc(CCCNCc2nc3ccccc3[nH]2)nn1)c1ccc(F)cc1` [Compound 57]: in assay [2], the 50% inhibitory concentration (IC50) amounted to 0.2 µM. For the molecule `N=C(NCCCc1cn(CC(=O)N[C@@H](CC(=O)O)c2ccccc2)nn1)NCCc1ccc(O)cc1` [Compound 59], in assay [2], the IC50 is 0.308 µM.
